Results published in ChEMBL document CHEMBL4425168, “Dehydrozingerone Inspired Styryl Hydrazine Thiazole Hybrids as Promising Class of Antimycobacterial Agents” (ACS Med Chem Lett, 2016).
Converted amounts (≈) assume the structure as drawn.

Legend:
Assay type in all cases: functional, organism-based
[1] = system: Mycobacterium tuberculosis; experiment: Antitubercular activity against Mycobacterium tuberculosis H37Rv FQ-R1 harboring gyrB D94N mutant after 5 days
[2] = system: Mycobacterium tuberculosis; experiment: Antitubercular activity against Mycobacterium tuberculosis H37Rv INH-R1 harboring katG Y155 mutant after 5 days
[3] = system: Mycobacterium tuberculosis; experiment: Antitubercular activity against Mycobacterium tuberculosis H37Rv RIF-R1 harboring nrpoB S522L mutant after 5 days

| SMILES | IC50 [1] [µM] | IC90 [1] [µM] | MIC [1] [µM] | IC50 [2] [µM] | IC90 [2] [µM] | MIC [2] [µM] | IC50 [3] [µM] | IC90 [3] [µM] | MIC [3] [µM] |
| --- | --- | --- | --- | --- | --- | --- | --- | --- | --- |
| COc1ccc(/C=C/C(C)=N/Nc2nc(-c3ccc(N)cc3)cs2)cc1OC | 2.3 | 33 | 21 (≈ 8.28 µg/mL) | 0.68 | 3.8 | 3.2 (≈ 1.26 µg/mL) | 0.54 | 2.6 | 2.2 (≈ 0.868 µg/mL) |
| COc1ccc(/C=C/C(C)=N/NC(N)=S)cc1OC | 2.8 | 16 | 17 (≈ 4.75 µg/mL) | 1.3 | 6.6 | 5.3 (≈ 1.48 µg/mL) | 1.1 | 4.6 | 4 (≈ 1.12 µg/mL) |
| COc1ccc(/C=C/C(C)=N/Nc2nc(-c3ccc(OC)c(OC)c3)cs2)cc1OC | 18 | > 200 | 30 (≈ 13.2 µg/mL) | 12 | > 200 | 24 (≈ 10.5 µg/mL) | 9.2 | 27 | 28 (≈ 12.3 µg/mL) |
| COc1ccc(-c2csc(N/N=C(C)/C=C/c3ccc(OC)c(OC)c3)n2)cc1 | 23 | > 50 | 22 (≈ 9.01 µg/mL) | 12 | > 50 | 15 (≈ 6.14 µg/mL) | 11 | > 50 | 25 (≈ 10.2 µg/mL) |
| COc1ccc(/C=C/C(C)=N/Nc2nc(-c3c(OC)cccc3OC)cs2)cc1OC | 13 | > 25 | 33 (≈ 14.5 µg/mL) | 9.1 | > 25 | 32 (≈ 14.1 µg/mL) | 7 | 19 | 17 (≈ 7.47 µg/mL) |
| NNC(=O)c1ccncc1 [ISONIAZID] | 0.36 | 0.47 | 0.35 (≈ 0.048 µg/mL) | > 200 | > 200 | >200 | 0.15 | 0.21 | 0.17 (≈ 0.0233 µg/mL) |
| C[C@H]1COc2c(N3CCN(C)CC3)c(F)cc3c(=O)c(C(=O)O)cn1c23.C[C@H]1COc2c(N3CCN(C)CC3)c(F)cc3c(=O)c(C(=O)O)cn1c23.O [LEVOFLOXACIN] | 12 | 22 | 20 | 0.64 | 1.4 | 1.2 | 0.59 | 0.91 | 0.76 |
| CO[C@H]1/C=C/O[C@@]2(C)Oc3c(C)c(O)c4c(O)c(c(/C=N/N5CCN(C)CC5)c(O)c4c3C2=O)NC(=O)/C(C)=C\C=C\[C@H](C)[C@H](O)[C@@H](C)[C@@H](O)[C@@H](C)[C@H](OC(C)=O)[C@@H]1C [RIFAMPIN] | 0.013 | 0.039 | 0.027 (≈ 0.0222 µg/mL) | 0.0084 | 0.022 | 0.018 (≈ 0.0148 µg/mL) | 1.2 | 2.3 | 2 (≈ 1.65 µg/mL) |
